# Assay results published in PubChem BioAssay (NCI).
#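 Grown in 96-well plates, cells were treated for 48 hours with each compound at five concentrations. Insufficient inhibition: endpoint recorded as highest concentration tested. Definition used: TGI = concentration required for complete inhibition of growth.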
# Tests used:
# Assay in all cases: DTP human tumour cell line panel, 48 h
# KM12 colon = test system: KM12 colon
# MCF7 breast = test system: MCF7 breast
# COLO 205 colon = test system: COLO 205 colon
# SR leukemia = test system: SR leukemia
# CCRF-CEM leukemia = test system: CCRF-CEM leukemia
# SK-MEL-5 melanoma = test system: SK-MEL-5 melanoma
# EKVX NSCLC = test system: EKVX NSCLC
# SF-295 CNS = test system: SF-295 CNS
# ACHN renal = test system: ACHN renal
# BT-549 breast = test system: BT-549 breast
SMILES,TGI (KM12 colon) [µM],TGI (MCF7 breast) [µM],TGI (COLO 205 colon) [µM],TGI (SR leukemia) [µM],TGI (CCRF-CEM leukemia) [µM],TGI (SK-MEL-5 melanoma) [µM],TGI (EKVX NSCLC) [µM],TGI (SF-295 CNS) [µM],TGI (ACHN renal) [µM],TGI (BT-549 breast) [µM]
CCN(C(=O)N[C@@H](C)C(=O)N[C@@H](Cc1ccccc1)C(=O)OC)c1ccccc1,> 100,> 100,> 100,> 100,> 100,> 100,> 100,> 100,> 100,> 100
CSc1csc(-c2ccc(-c3ccc(-c4cc(SC)cs4)s3)s2)c1,> 100,> 100,> 100,> 100,> 100,> 100,> 100,> 100,> 100,> 100
O=C(O)c1cccc(S(=O)(=O)NN2C(=O)CSC2c2ccc(Cl)cc2Cl)c1 (stereo not given),> 100,> 100,> 100,83.5,> 100,> 100,> 100,> 100,> 100,> 100
CN1CCN(Cc2cc3c(nn2)-c2ccccc2C3=O)CC1,> 100,> 100,34.3,> 100,> 100,35.1,> 100,> 100,62.4,> 100
COc1cccc2c1OC(c1cccc3ccccc13)C([N+](=O)[O-])=C2 (stereo not given),3.05,2.65,5.72,> 100,2.02,2.96,10.5,4.56,3.02,2.74
CCOC(=O)CC/C(=N/Nc1ccc(Cl)cc1[N+](=O)[O-])C(=O)OCC,> 100,> 100,> 100,> 100,> 100,> 100,> 100,> 100,> 100,> 100
O=c1onc2n1-c1cc(Cl)ccc1C(=S)N1CSCC21 (stereo not given),> 100,> 100,> 100,> 100,> 100,> 100,> 100,> 100,> 100,> 100
CCOC(=O)c1c2cccccc-2nc1Nc1cccc2c(C)ccnc12,> 10,> 10,> 10,> 10,> 10,> 10,> 10,> 10,> 10,> 10
Cn1ncc2c(NCc3ccccc3)ncnc21,> 100,> 100,> 100,> 100,> 100,> 100,> 100,> 100,> 100,> 100
O=C(O)C(O)C(O)C(O)C(O)CO (stereo not given),> 100,> 100,> 100,> 100,> 100,> 100,> 100,> 100,> 100,> 100
C[C@@H]1CCC2[C@@H](C)[C@@H](O[C@H]3O[C@@H]4O[C@@]5(C)CCC6[C@H](C)CCC([C@H]3C)[C@]64OO5)O[C@@H]3O[C@@]4(C)CCC1[C@@]23OO4 (stereo not given in full),> 25,> 25,> 25,> 25,> 25,> 25,> 25,> 25,> 25,> 25
CC(C)Oc1cccc(N2C(=NCc3c[nH]c4ccccc34)Nc3ccncc3S2(=O)=O)c1,> 100,> 100,29.4,> 100,> 100,27.7,79,> 100,> 100,> 100
CCOC(=O)C(NC(=O)CC)(N1CCN(c2cc3c(cc2F)c(=O)c(C(=O)O)cn3C2CC2)CC1)C(F)(F)F (stereo not given),> 100,> 100,> 100,> 100,> 100,> 100,> 100,> 100,> 100,> 100
O=C(OCC(Cl)(Cl)Cl)N1CC[C@H](C2CCCCC2)C1,31.7,34.9,39,40.6,36.1,30,32.4,31.5,36.7,53.9
c1ccc(C(C(=Nc2ccc(Cc3ccc(N=C(C(c4ccccc4)c4ccccc4)N4CC4)cc3)cc2)N2CC2)c2ccccc2)cc1,24.5,15.4,16.7,15.7,49.8,20.1,25.9,27.5,21.3,24.7
COc1ccc(C(=O)NCCN(C)C)c2nc3ccccc3cc12,7.79,3.99,2.57,1.5,11.4,2.54,6.68,6.34,2.5,14.4
COc1ccc(/C=N/NC(=O)c2ccc(O)c(CN(C)C)c2)cc1,> 100,> 100,> 100,> 100,> 100,> 100,> 100,> 100,> 100,> 100
CC(C)N1CCN(c2ccc(OCC3COC(Cn4cncn4)(c4ccc(Cl)cc4Cl)O3)cc2)CC1 (stereo not given),28.8,28.9,3.69,12.1,32.5,4.92,30.6,26.6,47.1,30

SMILES,TGI (KM12 colon) [µM],TGI (MCF7 breast) [µM],TGI (COLO 205 colon) [µM],TGI (SR leukemia) [µM],TGI (CCRF-CEM leukemia) [µM],TGI (SK-MEL-5 melanoma) [µM],TGI (EKVX NSCLC) [µM],TGI (SF-295 CNS) [µM],TGI (ACHN renal) [µM],TGI (BT-549 breast) [µM]
C=CCn1c(=O)ccn(/C(=C/C(=O)OCC)C(=O)OCC)c1=O,32.9,17.1,3.97,23.2,6.04,29.1,38.2,> 87.7,13.9,29.3
Cc1ccc2c(c1)c1ccc3c(c1n2C)C(=O)C=CC3=O,> 10,4.99,3.16,0.871,0.62,> 10,> 7.07,> 10,3.02,2.83
CO/N=C(/C(=O)OC)c1ccccc1COc1ccccc1C(F)(F)F,> 100,> 100,> 100,79.2,> 100,25.8,62.9,> 100,> 100,> 100
CC(C)(CO)CNc1nc(N)nc(Cl)c1/C=N/O,> 100,> 100,> 100,> 100,> 100,18.8,> 100,> 100,> 100,> 100
COc1cc2c(cc1OCCCN1C(=O)c3cccc4cccc(c34)C1=O)N=C[C@@H]1CCCN1C2=O,> 49.8,> 56.7,40.6,25.5,22.2,> 63.6,> 100,> 100,> 63.4,> 100
Cc1ccc(/C=C2/N=C(N/N=C\C(O)C(O)C(O)C(O)CO)NC2=O)cc1 (stereo not given),> 100,> 100,> 100,> 100,> 100,> 100,> 100,> 100,> 100,> 100
CN(C)Cc1cc(C(=O)/C=C/c2ccc([N+](=O)[O-])cc2)cc(CN(C)C)c1O,29.7,34.9,4.67,22.2,21.4,23.4,37.3,38.9,10.2,37.1
Clc1sc(Cl)c2c1[C@@H](Cl)C[C@@H]2Br,> 100,> 100,> 100,48.3,88.1,> 100,> 100,> 100,> 100,> 100
O=c1c2c(no[n+]2[O-])c2ccccc2n1-c1ccccc1,22,15.6,20.3,> 27.3,7.21,20,24.5,23.5,42.7,8.56
Cn1c2ccccc2c2c(=S)c3ccccc3ccc21,> 100,> 100,> 100,> 100,> 100,> 100,> 100,> 100,> 100,> 100
COc1cc(O)c2c(=O)c(OC)c(-c3ccc(OC)c(O)c3)oc2c1,> 100,> 100,> 100,> 100,> 100,> 100,> 100,> 100,> 100,> 100
CC(C)(C)OC(=O)NC(CSSCC(NC(=O)OC(C)(C)C)C(=O)O)C(=O)O (stereo not given),> 100,> 100,> 100,> 100,> 100,> 100,> 100,> 100,> 100,> 100
O=C(CC(=O)Nc1ccccc1)NNC(Sc1ccccc1)c1cc(N=Nc2ccc(Br)cc2)ccc1O (stereo not given),> 10,> 10,> 10,> 10,> 10,4.6,> 10,> 10,> 10,> 10
Cc1cc(OP2(=O)NCc3ncccc3O2)ccc1Cl (stereo not given),> 100,> 100,> 100,> 100,> 100,> 100,> 100,> 100,> 100,> 100
c1ccc(C2=NOC(c3ccccc3)N2C23CC4CC(CC(C4)C2)C3)cc1 (stereo not given),> 10,> 10,> 10,> 10,> 10,> 10,> 10,> 10,> 10,> 10
CN1CC[C@]2(c3cccc(O)c3)CC(=O)/C(=C/c3ccccc3)[C@@H]1C2,11.4,6.06,18.1,8.68,> 24.5,14.7,20.2,13.2,6.74,7.27
CCOc1c(OC)cc(-c2nc3n(n2)C(=O)C(CC)S3)cc1OC (stereo not given),> 10,> 10,> 10,> 10,> 10,> 10,> 10,> 10,> 10,> 10
